Reference: US20230278972A1, “SUBSTITUTED HALOALKYL SULFONANILIDE HERBICIDES” (FMC Corporation, priority 2020, published 2023)

Columns and labels:
Assay type in all cases: in vivo
[1] = system: Oat, Wild (wild oat, Avena fatua); experiment: Test A1 preemergence, Oat, Wild
Text: (§1) Seeds of plant species selected from, blackgrass (Alopecurus myosuroides), corn (Zea mays), Foxtail, Giant (giant foxtail, Setaria faberi), goosegrass (Eleusine indica), kochia (Bassia scoparia), Oat, Wild (wild oat, Avena fatua), Pigweed, Palmer (palmer amaranth, palmer pigweed, Amaranthus palmeri), ragweed (common ragweed, Ambrosia artemisiifolia), Ryegrass, Italian (Italian ryegrass, Lolium multiflorum), soybean (Glycine max), and wheat (Triticum aestivum) were planted into a blend of loam soil and sand and treated preemergence with a directed soil spray using test chemicals formulated in a non-phytotoxic solvent mixture which included a surfactant. At the same time, plants selected from these crop and weed species and also galium (catchweed bedstraw, Galium aparine) and horseweed (Erigeron canadensis) were planted in pots containing the same blend of loam soil and sand and treated with postemergence applications of test chemicals formulated in the same manner. Plants ranged in height from 2 to 10 cm and were in the one- to two-leaf stage for the postemergence treatment. […] A dash (-) response means no test result.

[2] = system: ragweed (common ragweed, Ambrosia artemisiifolia); experiment: Test A1 preemergence, ragweed
Text: as §1

[3] = system: kochia (Bassia scoparia); experiment: Test A1 preemergence, kochia
Text: as §1

[4] = system: ragweed (common ragweed, Ambrosia artemisiifolia); experiment: Test A1 postemergence, ragweed; details: for Plant response rating, Ragweed: Postemergence
Text: as §1

[5] = system: soybean (Glycine max); experiment: Test A1 postemergence, soybean; details: for Plant response rating, Soybean: Postemergence
Text: as §1

[6] = system: corn (Zea mays); experiment: Test A1 postemergence, corn; details: Postemergence
Text: as §1

[7] = system: goosegrass (Eleusine indica); experiment: Test A1 postemergence, goosegrass; details: for Plant response rating, Goosegrass: Postemergence
Text: as §1

[8] = system: Foxtail, Giant (giant foxtail, Setaria faberi); experiment: Test A1 preemergence, Foxtail, Giant
Text: as §1

[9] = system: galium (catchweed bedstraw, Galium aparine); experiment: Test A1 postemergence, galium; details: for Plant response rating, Galium: Postemergence
Text: as §1

[10] = system: blackgrass (Alopecurus myosuroides); experiment: Test A1 preemergence, blackgrass
Text: as §1

[11] = system: horseweed (Erigeron canadensis); experiment: Test A1 postemergence, horseweed; details: for Plant response rating, Horseweed: Postemergence
Text: as §1

[12] = system: goosegrass (Eleusine indica); experiment: Test A1 preemergence, goosegrass
Text: as §1

[13] = system: Pigweed, Palmer (palmer amaranth, palmer pigweed, Amaranthus palmeri); experiment: Test A1 preemergence, Pigweed, Palmer
Text: as §1

[14] = system: Ryegrass, Italian (Italian ryegrass, Lolium multiflorum); experiment: Test A1 postemergence, Ryegrass, Italian; details: for Plant response rating, Ryegrass, Italian: Postemergence
Text: as §1

[15] = system: barnyardgrass (Echinochloa crus-galli); experiment: Test B1 flooded paddy test, barnyardgrass; details: 250 g ai/ha, Flood, applied to paddy water, 2-leaf stage, visually evaluated after 10 to 14 days
Text: (§2) A dash (-) response means no test result.

[16] = system: wheat (Triticum aestivum); experiment: Test A1 preemergence, wheat
Text: as §1

[17] = system: rice (Oryza sativa); experiment: Test B1 flooded paddy test, rice; details: 250 g ai/ha, Flood, applied to paddy water, 2-leaf stage, visually evaluated after 10 to 14 days
Text: as §2

[18] = system: Ryegrass, Italian (Italian ryegrass, Lolium multiflorum); experiment: Test A1 preemergence, Ryegrass, Italian
Text: as §1

[19] = system: Foxtail, Giant (giant foxtail, Setaria faberi); experiment: Test A1 postemergence, Foxtail, Giant; details: for Plant response rating, Foxtail, Giant: Postemergence
Text: as §1

[20] = system: corn (Zea mays); experiment: Test A1 preemergence, corn
Text: as §1

[21] = system: Pigweed, Palmer (palmer amaranth, palmer pigweed, Amaranthus palmeri); experiment: Test A1 postemergence, Pigweed, Palmer; details: for Plant response rating, Pigweed, Palmer: Postemergence
Text: as §1

[22] = system: Oat, Wild (wild oat, Avena fatua); experiment: Test A1 postemergence, Oat, Wild; details: for Plant response rating, Oat, Wild: Postemergence
Text: as §1

[23] = system: wheat (Triticum aestivum); experiment: Test A1 postemergence, wheat; details: for Plant response rating, Wheat: Postemergence
Text: as §1

[24] = system: ducksalad (Heteranthera limosa); experiment: Test B1 flooded paddy test, ducksalad; details: 250 g ai/ha, Flood, applied to paddy water, 2-leaf stage, visually evaluated after 10 to 14 days
Text: as §2

[25] = system: kochia (Bassia scoparia); experiment: Test A1 postemergence, kochia; details: for Plant response rating, Kochia: Postemergence
Text: as §1

[26] = system: soybean (Glycine max); experiment: Test A1 preemergence, soybean
Text: as §1

[27] = system: blackgrass (Alopecurus myosuroides); experiment: Test A1 postemergence, blackgrass; details: Postemergence, 0 to 100 scale (0 no effect, 100 complete control)
Text: as §1

[28] = 31 g ai/ha, 0 to 100 scale (0 no effect, 100 complete control)
[29] = 125 g ai/ha, 0 to 100 scale, 0 no effect, 100 complete control
[30] = 31 g ai/ha, 0 to 100 scale (0 no effect, 100 complete control), 10 days
[31] = 31 g ai/ha, postemergence, 0 to 100 scale (0 no effect, 100 complete control)

COc1cc(C)c(C2=NOC3(CCCC3)C2)cc1NS(=O)(=O)C(F)(F)F [Compound 304]
Plant response rating, Oat, Wild [1, 28]: 50
Plant response rating, Oat, Wild [1, 29]: 0
Plant response rating, Ragweed [2, 28]: 0
Plant response rating, Ragweed [2, 29]: 50
Plant response rating, Kochia [3, 28]: 0
Plant response rating, Kochia [3, 29]: 0
Plant response rating, Ragweed [4, 30]: 0
Plant response rating, Ragweed ([4]; 125 g ai/ha, 0 to 100 scale): 30
Plant response rating, Soybean [5, 30]: 20
Plant response rating, Soybean ([5]; 125 g ai/ha, 0 to 100 scale): 50
Plant response rating, Corn [6, 30]: 0
Plant response rating, Corn ([6]; 125 g ai/ha, 0 to 100 scale): 20
Plant response rating, Goosegrass [7, 30]: 0
Plant response rating, Goosegrass ([7]; 125 g ai/ha, 0 to 100 scale): 0
Plant response rating, Foxtail, Giant [8, 28]: 0
Plant response rating, Foxtail, Giant [8, 29]: 80
Plant response rating, Galium [9, 30]: 0
Plant response rating, Galium ([9]; 125 g ai/ha, 0 to 100 scale): 0
Plant response rating, Blackgrass [10, 28]: 0
Plant response rating, Blackgrass [10, 29]: 40
Plant response rating, Horseweed [11, 30]: 0
Plant response rating, Horseweed ([11]; 125 g ai/ha, 0 to 100 scale): 0
Plant response rating, Goosegrass [12, 28]: 30
Plant response rating, Goosegrass [12, 29]: 90
Plant response rating, Pigweed, Palmer [13, 28]: 0
Plant response rating, Pigweed, Palmer [13, 29]: 20
Plant response rating, Ryegrass, Italian [14, 30]: 0
Plant response rating, Ryegrass, Italian ([14]; 125 g ai/ha, 0 to 100 scale): 0
Plant response rating, Barnyardgrass (0 to 100 scale, 0 is no effect, 100 is complete control) [15]: 0
Plant response rating, Wheat [16, 28]: 0
Plant response rating, Wheat [16, 29]: 20
Plant response rating, Rice (0 to 100 scale, 0 is no effect, 100 is complete control) [17]: 0
Plant response rating, Ryegrass, Italian [18, 28]: 40
Plant response rating, Ryegrass, Italian [18, 29]: 50
Plant response rating, Foxtail, Giant [19, 30]: 0
Plant response rating, Foxtail, Giant ([19]; 125 g ai/ha, 0 to 100 scale): 50
Plant response rating, Corn [20, 28]: 0
Plant response rating, Corn [20, 29]: 0
Plant response rating, Pigweed, Palmer [21, 30]: 0
Plant response rating, Pigweed, Palmer ([21]; 125 g ai/ha, 0 to 100 scale): 0
Plant response rating, Oat, Wild [22, 30]: 0
Plant response rating, Oat, Wild ([22]; 125 g ai/ha, 0 to 100 scale): 0
Plant response rating, Wheat [23, 30]: 0
Plant response rating, Wheat ([23]; 125 g ai/ha, 0 to 100 scale): 20
Plant response rating, Ducksalad (0 to 100 scale, 0 is no effect, 100 is complete control) [24]: 0
Plant response rating, Kochia [25, 30]: 0
Plant response rating, Kochia ([25]; 125 g ai/ha, 0 to 100 scale): 20
Plant response rating, Soybean [26, 28]: 0
Plant response rating, Soybean [26, 29]: 0

CCc1cc(C)c(N(COC(=O)C(C)(C)C)S(=O)(=O)C(F)(F)F)cc1C1=NOC2CCCC12 (centres unmarked) [Compound 378]
Plant response rating, Oat, Wild [1, 28]: 10
Plant response rating, Oat, Wild [1, 29]: 40
Plant response rating, Ragweed [2, 28]: 0
Plant response rating, Ragweed [2, 29]: 0
Plant response rating, Kochia [3, 28]: 0
Plant response rating, Kochia [3, 29]: 20
Ragweed plant response rating [4, 31]: 0
Plant response rating, Ragweed ([4]; 125 g ai/ha, 0 to 100 scale): 30
Soybean plant response rating [5, 31]: 0
Plant response rating, Soybean ([5]; 125 g ai/ha, 0 to 100 scale): 20
Plant response rating, Corn [6, 30]: 0
Plant response rating, Corn ([6]; 125 g ai/ha, 0 to 100 scale): 30
Goosegrass plant response rating [7, 31]: 0
Plant response rating, Goosegrass ([7]; 125 g ai/ha, 0 to 100 scale): 30
Plant response rating, Foxtail, Giant [8, 28]: 0
Plant response rating, Foxtail, Giant [8, 29]: 20
Galium plant response rating [9, 31]: 20
Plant response rating, Galium ([9]; 125 g ai/ha, 0 to 100 scale): 40
Plant response rating, Blackgrass ([27]; 31 g ai/ha, 10 days): 0
Plant response rating, Blackgrass ([27]; 125 g ai/ha): 30
Horseweed plant response rating [11, 31]: 0
Plant response rating, Horseweed ([11]; 125 g ai/ha, 0 to 100 scale): 90
Plant response rating, Goosegrass [12, 28]: 20
Plant response rating, Goosegrass [12, 29]: 50
Plant response rating, Pigweed, Palmer [13, 28]: 0
Plant response rating, Pigweed, Palmer [13, 29]: 20
Ryegrass, Italian plant response rating [14, 31]: 0
Plant response rating, Ryegrass, Italian ([14]; 125 g ai/ha, 0 to 100 scale): 0
Plant response rating, Barnyardgrass (0 to 100 scale, 0 is no effect, 100 is complete control) [15]: 95
Plant response rating, Wheat [16, 28]: 10
Plant response rating, Wheat [16, 29]: 20
Plant response rating, Rice (0 to 100 scale, 0 is no effect, 100 is complete control) [17]: 10
Plant response rating, Ryegrass, Italian [18, 28]: 0
Plant response rating, Ryegrass, Italian [18, 29]: 40
Foxtail, Giant plant response rating [19, 31]: 0
Plant response rating, Foxtail, Giant ([19]; 125 g ai/ha, 0 to 100 scale): 10
Plant response rating, Corn [20, 28]: 0
Plant response rating, Corn [20, 29]: 0
Pigweed, Palmer plant response rating [21, 31]: 0
Plant response rating, Pigweed, Palmer ([21]; 125 g ai/ha, 0 to 100 scale): 10
Oat, Wild plant response rating [22, 31]: 0
Plant response rating, Oat, Wild ([22]; 125 g ai/ha, 0 to 100 scale): 30
Wheat plant response rating [23, 31]: 30
Plant response rating, Wheat ([23]; 125 g ai/ha, 0 to 100 scale): 60
Plant response rating, Ducksalad (0 to 100 scale, 0 is no effect, 100 is complete control) [24]: 20
Kochia plant response rating [25, 31]: 0
Plant response rating, Kochia ([25]; 125 g ai/ha, 0 to 100 scale): 60
Plant response rating, Soybean [26, 28]: 0
Plant response rating, Soybean [26, 29]: 0
